What was measured:
[1] = biological target: Indoleamine 2,3-dioxygenase 1 (Homo sapiens) (UniProt P14902); experiment: Inhibition of recombinant human IDO at 10 uM using L-tryptophan as substrate after 60 mins relative to control
A-431 [2] = experiment: Inhibition of kynurenine production in IFNgamma-treated human A431 cells after 24 hrs in presence of tryptophan; assay type: functional, cell-based; settings: A-431, 24 h
A-431 [3] = experiment: Cytotoxicity against human A431 cells at 100 uM; assay type: cell-based; settings: a-431, 100 µM
A-431 [4] = experiment: Inhibition of kynurenine production in IFNgamma-treated human A431 cells at 1 uM after 24 hrs in presence of tryptophan relative to control; assay type: functional; settings: A-431, 24 h
A-431 [5] = experiment: Cytotoxicity against human A431 cells; assay type: cell-based
A-431 [6] = experiment: Inhibition of IFNgamma-induced STAT1 expression in human A431 cells after 24 hrs by Western blot method; assay type: functional, cell-based
A-431 [7] = experiment: Inhibition of IFNgamma-induced IDO expression in human A431 cells after 24 hrs by Western blot method; assay type: functional, cell-based
A-431 [8] = experiment: Inhibition of kynurenine production in IFNgamma-treated human A431 cells at 10 uM after 24 hrs in presence of tryptophan relative to control; assay type: functional; settings: A-431, 24 h

Chain of Indoleamine 2,3-dioxygenase 1 (Homo sapiens) (P14902 whole entry, looked up): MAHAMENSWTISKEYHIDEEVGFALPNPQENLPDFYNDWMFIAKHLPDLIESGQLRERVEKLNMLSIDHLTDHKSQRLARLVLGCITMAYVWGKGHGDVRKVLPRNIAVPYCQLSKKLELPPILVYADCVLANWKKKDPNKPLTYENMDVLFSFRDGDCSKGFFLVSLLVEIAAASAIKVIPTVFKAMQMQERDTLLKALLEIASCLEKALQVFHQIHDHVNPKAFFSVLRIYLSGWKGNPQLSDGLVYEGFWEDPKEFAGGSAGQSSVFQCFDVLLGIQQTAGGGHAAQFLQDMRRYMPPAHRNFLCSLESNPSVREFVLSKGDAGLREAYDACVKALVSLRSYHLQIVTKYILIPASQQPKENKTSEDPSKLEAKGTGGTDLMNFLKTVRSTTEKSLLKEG

inhibition [1] [%]	Compound	inhibition at 1 µM (A-431 [4]) [%]	other results
49	Clc1ccc2[nH]c(SCc3ccccc3/C=C\c3ccccc3)nc2c1		IC50 (A-431 [2]): 340 nM; Activity (A-431 [3]): Non-Toxic
11	[O-][S+](Cc1ccccc1)c1ccccc1CSc1nc2cc(Cl)ccc2[nH]1 (stereo not drawn)	30	
9	Clc1ccc2sc(SCc3ccccc3CCc3ccccc3)nc2c1	-8	
24	O=S(=O)(Cc1ccccc1)c1ccccc1CSc1nc2cc(Cl)ccc2[nH]1	1	
-6	Clc1ccc2[nH]c(SCc3ccccc3/C=C/c3ccccc3)nc2c1	15	
19	c1ccc(CCc2ccccc2CSc2ncc[nH]2)cc1	1	
3	Clc1ccc2[nH]c(SCc3ccccc3OCc3ccccc3)nc2c1	30	
0	c1ccc(CCc2ccccc2CSC2=NCCS2)cc1	0	
19	Clc1ccc2[nH]c(SCc3ccccc3CCCc3ccccc3)nc2c1	44	
43	c1ccc(CCc2ccccc2CSc2nc3ccccc3[nH]2)cc1	43	Activity (A-431 [5]): Non-Toxic
46	Clc1ccc2[nH]c(SCc3ccccc3Cc3ccccc3)nc2c1	13	
47	Clc1ccc2[nH]c(SCc3ccccc3CCc3ccccc3)nc2c1	48	Activity (A-431 [5]): Non-Toxic
52	Clc1ccc2[nH]c(SCc3ccccc3C#Cc3ccccc3)nc2c1	6	
31	c1ccc(CCc2ccccc2CSc2nccs2)cc1	7	
21	Clc1ccc2oc(SCc3ccccc3CCc3ccccc3)nc2c1	-18	
30	Clc1ccc2[nH]c(SCc3ccccc3Oc3ccccc3)nc2c1	39	
17	c1ccc(CCc2ccccc2CSC2=NCCN2)cc1	7	
19	Clc1ccc2[nH]c(SCc3ccccc3SCc3ccccc3)nc2c1		inhibition (A-431 [6]): Dose-dependent effect; IC50 (A-431 [2]): 450 nM; Activity (A-431 [3]): Non-Toxic; inhibition (A-431 [7]): Dose-dependent effect
	N=C(N)SCc1ccccc1		inhibition at 10 µM (A-431 [8]): 44%

— ChEMBL document CHEMBL4229487, “Cyclic analogue of S-benzylisothiourea that suppresses kynurenine production without inhibiting indoleamine 2,3-dioxygenase activity” (Bioorg Med Chem Lett, 2018)
